Assay results published in patent US5726325A, “Tricyclic compounds” (Kyowa Hakko Kogyo Co., Ltd., priority 1995, dated 1998).

Assays:
[1] = system: detrusor muscle; test: Test Example 1: relaxation of guinea pig bladder strips contracted with 50 mM KCl; format: cell-based, guinea pig (male albino Hartley); conditions: Cavia porcellus; contraction induced by 50 mM KCl; concentration decreasing detrusor contraction by 50%
Text: (§1) The activity of Compound (I) as a smooth muscle relaxant which is useful as a therapeutic agent for urinary incontinence can be observed, for example, using the following tests. In the following Test Examples 1 and 2, "IC50 " means the concentration of a test compound which induces the decrease in the contraction of detrusor muscle by 50%.
(§2) Male albino Hartley guinea pigs (350-550 g) were used as test animals. Each animal was exsanguinated to death under pentobarbital sodium anesthesia. The lower abdominal cavity was opened and its bladder was positioned. The connective tissue and the fat tissue around the bladder were removed, and the bladder was cleaned. After two pelvic nerves on the surface of the abdominal side of the bladder were dissected, the bladder was taken out on the entrance of ureter. The bladder was washed with a Krebs-Henseleit buffer [composition (mM): NaCl 118, KCl 4.7, MgSO4 1.2, KH2 PO4 1.2, CaCl2 2.5, NaHCO3 25, and D-glucose 11.1], and then put on a gauze patch soaked in the buffer in a Petri dish. The dome and the trigone of the bladder were dissected and discarded. The back of the bladder was cut vertically in the middle with scissors, and the bladder was put flat on the gauze patch. The dome tip and the side of the trigone of the bladder were dissected and discarded, and the mucosa of the bladder was removed. The back of the bladder was cut vertically to get 6 strips which are ca. 2.0 mm wide and ca. 10 mm long.
(§3) One end of each strip was fixed on a plastic supporter rod, and the other end was fixed on a clip connected to a suture thread. The supporter was fixed in 20 ml of an organ bath and the suture thread connected to the clip was fixed on a force-displacement transducer (NIHON KODEN TB-611T). The tissue was suspended in a Krebs-Henseleit buffer, and the bath solution was warmed to 37° C. and bubbled with a gas mixture of 5% CO2 and 95% O2. The pH of the solution was adjusted to about 7.4. The transducer was connected to a polygraph (NIHON KODEN AP-621G), and the change of tension was recorded on a recorder (YOKOGAWA type 3066). The polygraph was graduated by 0.5 g/cm.
After the tissue was incubated in the buffer for 15 minutes without preloading, tension was added thereto for about one hour. The preloading tension added was 1.5 g and it was relaxed to about 1 g. The tissue was washed at intervals of 15 minutes and the tension was adjusted to 1.5 g just before washing. The tension of the tissue was adjusted to be a steady state at 1 g. After this equilibrium time, 50 mM KCl (the whole content in the bath) was added, and the tissue was washed 10 minutes later. KCl was added to the tissue at intervals of 30 minutes, followed by washing 10 minutes later, and KCl was applied repeatedly until the developed tension induced by KCl becomes constant. When the tissue was confirmed to contract constantly by the application of KCl and relax to the steady state after washing, 50 mM KCl was applied again. After the tissue reached the steady state and the base line was obtained, a test compound was applied by the cumulative method (half-logarithmic incremence). The contact time at each concentration was 30 minutes. The activity of the compound was expressed as the maximum relaxation rate (%) of the tension induced by the agonist.

[2] = system: detrusor muscle; test: Test Example 2: relaxation of guinea pig bladder strips, rhythmical contraction induced by 15 mM KCl; format: cell-based, guinea pig (male albino Hartley); conditions: Cavia porcellus, concentration decreasing detrusor contraction by 50%
Text: as §1, §2, §3
The effect of a smooth muscle relaxant varies with the concentration of KCl based on the difference of an action mechanism. In the following Test Example, KCl was used at a concentration different from that in Test Example 1.
A sample of the excised bladder was prepared in the same manner as in Test Example 1, and the tension of the preparation was measured. After the tension of the tissue was adjusted to be a steady state at 1 g, 15 mM KCl was applied. After the rhythmical contraction was confirmed to appear by KCl, the tissue was washed. Then, 15 mM KCl was applied again. After the rhythmical contraction took place constantly and the tissue reached the steady state, a test compound was applied by the cumulative method (half-logarithmic incremence). The contact time at each concentration was 30 minutes. The activity of the compound was expressed as the maximum relaxation rate (%) of the tension induced by the agonist.

[3] = system: bladder; test: Test Example 3: vesical contraction interval in anesthetized rats, intravenous; format: in vivo, rat (female SD strain); conditions: 1 mg/kg i.v., average over 20 minutes, relative to pre-administration value
Text: Female SD strain rats (120-180 g) were used as test animals. Each animal was anesthetized by subcutaneous administration of 1 g/kg urethane. A catheter was inserted into the trachea to secure respiration. A polyethylene cannula (PE50) was inserted into the bladder from the entrance of the urethra and the urethra was ligated at the base. A catheter for blood pressure measurement was inserted into the right carotid artery, and a cannula for drug administration was inserted into the right jugular vein. The arterial catheter and the vesical catheter were connected to pressure transducers to measure the blood pressure and the intravesical pressure. After the bladder was stabilized over about 15 minutes, physiological saline was injected into the bladder at a volume of 0.2-0.7 ml to induce the rhythmical contraction almost once a minute. […]
By this examination method, the effect of the test compounds on both blood pressure and vesical contraction can be evaluated. The blood pressure was measured 5, 15, and 30 minutes after the test compound was injected into the vein. […] The change of average contraction interval (time between contractions) over 20 minutes was expressed as the relative value based on the pre-administration value which was regarded as 100.

[4] = Test Example 3: arterial blood pressure in anesthetized rats, intravenous; format: in vivo, rat (female SD strain); conditions: 1 mg/kg i.v.
Text: Female SD strain rats (120-180 g) were used as test animals. Each animal was anesthetized by subcutaneous administration of 1 g/kg urethane. A catheter was inserted into the trachea to secure respiration. A polyethylene cannula (PE50) was inserted into the bladder from the entrance of the urethra and the urethra was ligated at the base. A catheter for blood pressure measurement was inserted into the right carotid artery, and a cannula for drug administration was inserted into the right jugular vein. The arterial catheter and the vesical catheter were connected to pressure transducers to measure the blood pressure and the intravesical pressure. After the bladder was stabilized over about 15 minutes, physiological saline was injected into the bladder at a volume of 0.2-0.7 ml to induce the rhythmical contraction almost once a minute. After the contraction of the bladder started, the contraction pattern was stabilized for 30-45 minutes, followed by intravenous administration of a test compound.
By this examination method, the effect of the test compounds on both blood pressure and vesical contraction can be evaluated. The blood pressure was measured 5, 15, and 30 minutes after the test compound was injected into the vein. Micturition contraction was induced by injecting physiological saline into the bladder. The change of average contraction interval (time between contractions) over 20 minutes was expressed as the relative value based on the pre-administration value which was regarded as 100.

[5] = system: bladder; test: Test Example 4: micturition contraction interval in rats under partial restraint, oral; format: in vivo, rat (male SD strain); conditions: Rattus norvegicus, pre-administration = 100; for response vs control in vivo at 3 mg/kg: 3 mg/kg oral; for response vs control in vivo at 1 mg/kg: 1.0 mg/kg oral, second part of Table 4; for response vs control in vivo at 0.1 mg/kg: 0.1 mg/kg oral
Text: As a control compound, cromakalim was used.

CC(O)(C(=O)Nc1cccc2c1C(=O)c1ccccc1CO2)C(F)(F)F (stereo not drawn) [Compound 1, 1-(3,3,3-Trifluoro-2-hydroxy-2-methylpropanoylamino)-6,11-dihydrodibenz[b,e]oxepin-11-one]
IC50 [1]: 1700 nM
IC50 [2]: 2400 nM
Change of contraction interval [3]: +150%
Change of average arterial blood pressure ([4]; 5 min): +5%
Change of average arterial blood pressure ([4]; 15 min): +5%
Change of average arterial blood pressure ([4]; 30 min): +5%
response vs control in vivo at 3 mg/kg ([5]; 1 hr): 136%
response vs control in vivo at 3 mg/kg ([5]; 2 hr): 148%
response vs control in vivo at 3 mg/kg ([5]; 3 hr): 134%
response vs control in vivo at 3 mg/kg ([5]; 4 hr): 122%
response vs control in vivo at 3 mg/kg ([5]; 5 hr): 117%

CC(O)(C(=O)Nc1cccc2c1C(=O)c1sccc1CO2)C(F)(F)F (stereo not drawn) [Compound 7, 9-(3,3,3-Trifluoro-2-hydroxy-2-methylpropanoylamino)-4,10-dihydrothieno[3,2-c][1]benzoxepin-10-one]
IC50 [1]: 2400 nM
IC50 [2]: 2100 nM
Change of contraction interval [3]: +186%
Change of average arterial blood pressure ([4]; 5 min): -4%
Change of average arterial blood pressure ([4]; 15 min): +1%
Change of average arterial blood pressure ([4]; 30 min): +4%
response vs control in vivo at 3 mg/kg ([5]; 1 hr): 132%
response vs control in vivo at 3 mg/kg ([5]; 2 hr): 141%
response vs control in vivo at 3 mg/kg ([5]; 3 hr): 149%
response vs control in vivo at 3 mg/kg ([5]; 4 hr): 154%
response vs control in vivo at 3 mg/kg ([5]; 5 hr): 146%

CC(O)(C(=O)Nc1cccc2c1C(=O)c1cccc(F)c1CO2)C(F)(F)F (stereo not drawn) [Compound 20, 7-Fluoro-1-(3,3,3-trifluoro-2-hydroxy-2-methylpropanoylamino)-6,11-dihydrodibenz[b,e]oxepin-11-one]
IC50 [1]: 2300 nM
IC50 [2]: 6000 nM
response vs control in vivo at 1 mg/kg ([5]; 1 hr after administration): 121 ± 3.9%
response vs control in vivo at 1 mg/kg ([5]; 2 hr after administration): 147 ± 9.9%
response vs control in vivo at 1 mg/kg ([5]; 3 hr after administration): 148 ± 20%
response vs control in vivo at 1 mg/kg ([5]; 4 hr after administration): 156 ± 19.6%
response vs control in vivo at 1 mg/kg ([5]; 5 hr after administration): 142 ± 15.8%

C[C@](O)(C(=O)Nc1cccc2c1C(=O)c1sccc1CO2)C(F)(F)F [Compound 33, (S)-9-(3,3,3-trifluoro-2-hydroxy-2-methylpropanoylamino)-4,10-dihydrothieno[3,2-c][1]benzoxepin-10-one]
IC50 [1]: 1100 nM
IC50 [2]: 2700 nM
response vs control in vivo at 0.1 mg/kg ([5]; 1 hr after administration): 135 ± 21.7%
response vs control in vivo at 0.1 mg/kg ([5]; 2 hr after administration): 146 ± 25.5%
response vs control in vivo at 0.1 mg/kg ([5]; 3 hr after administration): 143 ± 24.4%
response vs control in vivo at 0.1 mg/kg ([5]; 4 hr after administration): 156 ± 30.6%
response vs control in vivo at 0.1 mg/kg ([5]; 5 hr after administration): 161 ± 37.4%

C[C@](O)(C(=O)Nc1cccc2c1C(=O)c1ccoc1CO2)C(F)(F)F [Compound 35, (S)-5-(3,3,3-Trifluoro-2-hydroxy-2-methylpropanoylamino)-4,10-dihydrofuro[2,3-c][1]benzoxepin-4-one]
IC50 [1]: 31000 nM
IC50 [2]: 1000 nM
response vs control in vivo at 1 mg/kg ([5]; 1 hr after administration): 123 ± 8.8%
response vs control in vivo at 1 mg/kg ([5]; 2 hr after administration): 124 ± 5.7%
response vs control in vivo at 1 mg/kg ([5]; 3 hr after administration): 131 ± 9.8%
response vs control in vivo at 1 mg/kg ([5]; 4 hr after administration): 138 ± 11%
response vs control in vivo at 1 mg/kg ([5]; 5 hr after administration): 144 ± 8.9%

C[C@](O)(C(=O)Nc1ccc2c(c1)OCc1occc1C2=O)C(F)(F)F [Compound 37, (S)-7-(3,3,3-Trifluoro-2-hydroxy-2-methylpropanoylamino)-4,10-dihydrofuro[2,3-c][1]benzoxepin-4-one]
IC50 [1]: 4300 nM
IC50 [2]: 200 nM
response vs control in vivo at 1 mg/kg ([5]; 1 hr after administration): 114 ± 10.7%
response vs control in vivo at 1 mg/kg ([5]; 2 hr after administration): 128 ± 6.5%
response vs control in vivo at 1 mg/kg ([5]; 3 hr after administration): 126 ± 6.5%
response vs control in vivo at 1 mg/kg ([5]; 4 hr after administration): 140 ± 10.2%
response vs control in vivo at 1 mg/kg ([5]; 5 hr after administration): 144 ± 11.1%

CC(O)(C(=O)Nc1ccc2c(c1)C(=O)c1ccccc1CC2)C(F)(F)F (stereo not drawn) [Compound 53, 3-(3,3,3-Trifluoro-2-hydroxy-2-methylpropanoylamino)-10,11-dihydro-5H-dibenzo[a,d]cyclohepten-5-one]
IC50 [1]: > 10000 nM
IC50 [2]: 2900 nM
response vs control in vivo at 1 mg/kg ([5]; 1 hr after administration): 108 ± 9.7%
response vs control in vivo at 1 mg/kg ([5]; 2 hr after administration): 134 ± 12%
response vs control in vivo at 1 mg/kg ([5]; 3 hr after administration): 148 ± 14%
response vs control in vivo at 1 mg/kg ([5]; 4 hr after administration): 155 ± 11.9%
response vs control in vivo at 1 mg/kg ([5]; 5 hr after administration): 168 ± 11.8%
